US20220152064A1, “BENZOAZEPINE COMPOUND-CONTAINING PHARMACEUTICAL COMPOSITION” (OTSUKA PHARMACEUTICAL CO., LTD., priority 2019, published 2022)

Assay: Side effects on the skin or subcutaneous tissue in test of intravenous administration of compound A composition to healthy subjects
Assay type: in vivo, human
Conditions: for Erythema (number of subjects) / Hyperhidrosis (number of subjects) / Number of subjects who showed at least one symptom / Pruritus (number of subjects): N=6 healthy adult males, within 24 hours after initiation of administration
Method: Water for injection (5 mL) was added to each of the obtained 0 mg formulation and 25 mg formulation to dissolve the freeze-dried compositions (freeze-dried cakes), thus obtaining aqueous solutions for injection. When the 25 mg formulation was dissolved in 5 mL of water for injection, 5.21 mL of the aqueous solution composition (25 mg formulation (aqueous solution for injection)) shown in Table 1 comprising 5 mg/mL of the active ingredient (compound A) was reconstituted. Further, according to the compositions shown in Table 3 below, administration solutions were prepared by mixing the 25 mg formulation (aqueous solution for injection), the 0 mg formulation (aqueous solution for injection), and a physiological saline (physiological saline solution).
Each of the obtained administration solutions was intravenously administered with a syringe pump over the administration times shown in Table 3. The number of subjects to which each solution was administered was 6 healthy adult males (aged 20 to 40 years old) (N=6).
The number of subjects who developed, within 24 hours after the initiation of administration, side effects that could appear on the skin or subcutaneous tissue (erythema, hyperhidrosis, or pruritus) was recorded.

[1] = administration solution 1, 15 mg compound A i.v. over 2 hours
[2] = administration solution 2, 7.5 mg compound A i.v. over 2 hours
[3] = administration solution 3, 15 mg compound A i.v. over 5 minutes
[4] = administration solution 4, 7.5 mg compound A i.v. over 5 minutes
[5] = administration solution 5, 15 mg compound A i.v. over 1 minute
[6] = administration solution 6, 7.5 mg compound A i.v. over 1 minute

SMILES: Cc1ccccc1C(=O)Nc1ccc(C(=O)N2CCCC(OP(=O)([O-])[O-])c3cc(Cl)ccc32)c(C)c1.[Na+].[Na+] (centres unmarked) [compound A]
- erythema, hyperhidrosis, or pruritus (7.5 mg or 15 mg of compound A intravenously administered over a period of 1 minute or 5 minutes (administration solutions 3 to 6)): frequently observed
- side effects that could appear on the skin or subcutaneous tissue, such as erythema, hyperhidrosis, or pruritus (7.5 mg or 15 mg of compound A slowly administered over a period of 2 hours (administration solutions 1 and 2)): no side effects
- Erythema (number of subjects) [1]: 0 human
- Hyperhidrosis (number of subjects) [1]: 0 human
- Number of subjects who showed at least one symptom [1]: 0 human
- Pruritus (number of subjects) [1]: 0 human
- Erythema (number of subjects) [2]: 0 human
- Hyperhidrosis (number of subjects) [2]: 0 human
- Number of subjects who showed at least one symptom [2]: 0 human
- Pruritus (number of subjects) [2]: 0 human
- Erythema (number of subjects) [3]: 4 human
- Hyperhidrosis (number of subjects) [3]: 2 human
- Number of subjects who showed at least one symptom [3]: 5 human
- Pruritus (number of subjects) [3]: 4 human
- Erythema (number of subjects) [4]: 3 human
- Hyperhidrosis (number of subjects) [4]: 2 human
- Number of subjects who showed at least one symptom [4]: 4 human
- Pruritus (number of subjects) [4]: 3 human
- Erythema (number of subjects) [5]: 5 human
- Hyperhidrosis (number of subjects) [5]: 2 human
- Number of subjects who showed at least one symptom [5]: 5 human
- Pruritus (number of subjects) [5]: 4 human
- Erythema (number of subjects) [6]: 5 human
- Hyperhidrosis (number of subjects) [6]: 0 human
- Number of subjects who showed at least one symptom [6]: 5 human
- Pruritus (number of subjects) [6]: 4 human
